Legend:
human SSTR 5 = target: T1, human SSTR 5 (Homo sapiens, UniProt P35346); experiment: Radiolabeled ligand binding assay, human SSTR subtype selectivity; settings: SSTR5 versus SSTR1-4, 1 μM
T1 construct: expressed in transfected cells; host or cells: CHO-K1 cells (membrane fraction)
Experimental: The selectivity of test compounds for human SSTR subtypes was investigated by radiolabeled ligand binding assay. The membrane fraction of CHO-K1 cells expressing human SSTR1-5 was suspended in am assay buffer (25 mM HEPES (pH 7.4), 5 mM MgCl2, 1 mM CaCl2), 10 μg/mL saponin, 0.5% fatty-acid free BSA) and incubated for 1 hr in the presence of 1 μM test compound 1 and [^125I]Tyr^11-somatostatin 14 (Perkin Elmer). Thereafter, the solution containing the membrane fraction was transferred onto a filter plate, and after washing the filter six times with a wash buffer (25 mM HEPES, 5 mM MgCl2, 1 mM CaCl2), 50 μL of Microscint 20 (Packard) was added, and the radioactivity was measured using a TopCount (Perkin Elmer). The results of competitive activity of the test compound against the binding of the human SSTR subtypes with the labeled ligands are shown in Table 2.

growth hormone secretion = experiment: Growth hormone secretion enhancing action by single dose administration in human (Phase 1 study); type: in vivo
Experimental: (§1) The examples in this section show the measurement results of blood anterior pituitary hormone concentrations using blood samples from a dose escalation study targeting healthy Japanese adult men, from A Randomized, Double-Blind, Placebo-Controlled, Phase 1 Study (jRCT2051210027) targeting healthy adults, which was conducted to examine the safety and tolerability, pharmacokinetics, and pharmacodynamic action of a single administration of test compound 1.
In a randomized, double-blind, placebo-controlled, parallel-group comparison, dose-escalation study consisting of 7 cohorts, a single dose of test compound 1 (1, 3, 10, 20, 40, 80 and 160 mg) or placebo was orally administered under fasting conditions. Eight test subjects (6 in the active drug group and 2 in the placebo group) participated in each cohort. The concomitant use of all medications was prohibited from 28 days before hospitalization until discharge. […]
The concentration of anterior pituitary hormone was measured using blood from the placebo administration group of all cohorts and the test subjects who received administration of 1 mg or 10 mg of test compound 1, at 0.5 hr before administration and 2, 4, 6, 8, and 10 hr after administration. […]

[1] = test system: secretion of other anterior pituitary hormones; experiment: Blood concentrations of other anterior pituitary hormones after single dose administration in human (Phase 1 study); type: in vivo; settings: healthy Japanese adult men; single oral dose 1 mg or 10 mg
Experimental: as §1
In a randomized, double-blind, placebo-controlled, parallel-group comparison, dose-escalation study consisting of 7 cohorts, a single dose of test compound 1 (1, 3, 10, 20, 40, 80 and 160 mg) or placebo was orally administered under fasting conditions. Eight test subjects (6 in the active drug group and 2 in the placebo group) participated in each cohort. The concomitant use of all medications was prohibited from 28 days before hospitalization until discharge.
The test subjects were inspected and examined within 28-2 days and 1 day before administration of test compound 1, and eligibility was confirmed based on the above-mentioned inclusion criteria and exclusion criteria. […] They were fasted for 10 hr before administration and 4 hr after administration until lunch, and took lunch at 13:[…]. The blood was collected 0.5 hr before and 1, 2, 4, 6, 8, and 10 hr after administration of test compound 1.
The concentration of anterior pituitary hormone was measured using blood from the placebo administration group of all cohorts and the test subjects who received administration of 1 mg or 10 mg of test compound 1, at 0.5 hr before administration and 2, 4, 6, 8, and 10 hr after administration. The concentrations of growth hormone, follicle-stimulating hormone, luteinizing hormone, thyroid-stimulating hormone, adrenocorticotropic hormone, and prolactin in blood were measured using the Human Growth Hormone Quantikine ELISA Kit (manufactured by R&D Systems), Follicle-Stimulating Hormone (Human) ELISA Kit (manufactured by Cayman Chemical), Luteinizing Hormome (Human) ELISA Kit (manufactured by Cayman Chemical), U-TSH ELISA (manufactured by BIOCHECK), ACTH ELISA Kit (manufactured by MB Biosciences GmbH), and Human Prolactin Quantikine ELISA Kit (manufactured by R&D Systems) according to the protocol described in the package insert of each kit.
The time course changes in the blood anterior pituitary hormone concentrations after oral administration of placebo (n=14) or test compound 1 at doses of 1 mg and 10 mg (n=6 for each) are shown in FIG. 1-6.

T1 sequence (P35346 whole entry): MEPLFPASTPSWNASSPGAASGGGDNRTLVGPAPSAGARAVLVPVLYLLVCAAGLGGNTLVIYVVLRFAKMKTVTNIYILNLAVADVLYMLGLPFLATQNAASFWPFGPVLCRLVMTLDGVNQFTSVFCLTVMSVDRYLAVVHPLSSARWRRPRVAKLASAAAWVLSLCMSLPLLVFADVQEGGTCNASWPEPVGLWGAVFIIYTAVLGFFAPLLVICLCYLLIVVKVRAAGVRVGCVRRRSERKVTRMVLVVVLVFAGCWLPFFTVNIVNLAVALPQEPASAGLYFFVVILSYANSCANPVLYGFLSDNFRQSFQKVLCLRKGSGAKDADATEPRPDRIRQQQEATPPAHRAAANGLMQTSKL

With `CCCc1nc2c(cc1C(=O)O)C(=O)N(C1CCN(Cc3cc(C4CC4)c(-c4ccc(F)cc4)cc3OCC)CC1)CC2` [test compound 1, 6-(1-((2-cyclopropyl-5-ethoxy-4′-fluorobiphenyl-4-yl)methyl)piperidin-4-yl)-5-oxo-2-propyl-5,6,7,8-tetrahydro-1,6-naphthyridine-3-carboxylic acid] the “selectivity of binding among the human SSTR subtypes” value (human SSTR 5) was “selectively binds to SSTR5”, the “growth hormone secretion (blood growth hormone concentration)” value (growth hormone secretion; healthy Japanese adult men, single oral dose 1 mg or 10 mg, fasting, 2-10 hr after administration) was “clearly enhance growth hormone secretion” and the “increase in blood growth hormone concentration compared with growth hormone replacement therapy” value (growth hormone secretion; human, compared with literature values for patients with pediatric growth hormone deficiency) was “corresponds to the blood growth hormone concentration obtained by growth hormone replacement therapy”. For the same compound, the “secretion of adrenocorticotropic hormone (blood concentration)” value [1] was “did not substantially affect”, the “secretion of follicle-stimulating hormone (blood concentration)” value [1] was “did not substantially affect” and the “secretion of luteinizing hormone (blood concentration)” value [1] was “did not substantially affect”. The “secretion of prolactin (blood concentration)” value [1] was “did not substantially affect” and the “secretion of thyroid-stimulating hormone (blood concentration)” value [1] was “did not substantially affect”.
